Patent US4080467A, “Pharmaceutical compositions comprising 1,3-dithiolan-2-ylidene malonate derivatives” (Nihon Nohyaku Co., Ltd., priority 1976, dated 1978)

Experiments:
in vivo = conditions: mouse, po
[1] = Effect on concentration of ethyl alcohol in the blood; format: in vivo, mice; conditions: 250 mg/kg oral 6 h before ethyl alcohol 1,000 mg/kg
Description: The test compounds are dissolved or suspended in olive oil and administered orally at the dose of 250 mg/kg to the mice. After 6 hours, 1,000 mg/kg of ethyl alcohol was given orally. Blood was taken in a capillary from caudal vein at the time indicated in the results. The plasma was obtained by centrifugation. The concentration of ethyl alcohol in the plasma was measured by FID type gas liquid chromatography. Five mice were used for each group.

[2] = system: Acute Liver Damage associated with Centrilobular Necrosis (carbon tetrachloride); experiment: Protective effect on acute liver damage associated with centrilobular necrosis (carbon tetrachloride model); format: in vivo, mice (four-week-old male, dd strain); conditions: 250 mg/kg oral 6 h before CCl4, average of 5 to 6 mice; for p-GPT (plasma glutamic-pyruvic transaminase activity): 24 h after CCl4, values over 1,000 regarded as 1,000; for Liver Damage Index: 0 normal, 2 slightly recognized, 4 clearly observable damage, 6 heavy damage
Text: Carbon tetrachloride (CCl4) administration induces centrilobular necrosis of the liver associated with loss of diphosphopyridine nucleotide, hepatic glycogen, coenzyme A and increase in neutral fat. Release of several enzymes from the hepatocytes, and increases of enzyme activities in the plasma are recognized as the result of the damage of the liver. A suitable means for evaluating the degree of damage induced by CCl4 or the degree of protection afforded by drugs is to study the plasma glutamic-pyruvic transaminase (p-GPT) activity.
Method: The test compounds were dissolved or suspended in olive oil and administered orally at the dose of 250 mg/kg to the mice (Four-week-old male mice-dd strain). After 6 hours, CCl4 was administered orally (0.05 ml/kg as olive oil solution). Animals were killed 24 hours after CCl4 administration, and the liver was grossly observed. The plasma was obtained by centrifugation. Activities of p-GPT were determined by the method of Reitman and Frankel and expressed in Karmen units.
Score for liver damage was as follows: […]
4 Clearly observable damage
Each figure indicates average of 5 to 6 mice. Values of p-GPT over 1,000 Karmen unit regarded as 1,000 for calculation of average for convenience.

[3] = system: fatty liver (carbon tetrachloride); experiment: Therapeutic effect on fatty liver (carbon tetrachloride model); format: in vivo, male rat (35 week-old, SD strain); conditions: for Degree of fatty liver (histopathological examination): 10 days, one symbol per animal
Description: Carbon tetrachloride also induces fatty liver, but the picture of disease differs from the case of ethionine-induced fatty liver. Carbon tetrachloride is generally considered to damage microsome and thereby to inhibit protein synthesis and induce fatty liver.
Carbon tetrachloride was subscutaneously administered to 35 week-old male rat (SD strain) for 4 days at the dose of 1 ml/kg. The treated animals were left for 3 days after the last administration to maximize the manifestation of fatty liver.
Administration of the compounds of this invention was commenced on the fourth day after the administration of carbon tetrachloride was completed. It was orally given everyday for 10 days at the dose of 50 or 250 mg/kg. On the 11th day, the animals were sacrificed. The therapeutic effect was evaluated by determining the content of lipid in the liver (triglyceride and total lipid) and examining the histopathological changes. Triglyceride and total lipid were determined colorimetrically by chromotropic acid method and Bragdon's oxidation method, respectively.
Indices for the histopathological change is as follows.

fatty liver (ethionine) = experiment: Effect on fatty liver (ethionine model); format: in vivo, male mice (4 week-old, dd-strain); conditions: diet plus 0.2% ethionine and 0.2% compound, 5 days
Text: There are known many factors inducing fatty liver. But, the fatty liver is grouped into a couple of patterns from the mechanism of lipid accumulation or metabolism of lipoprotein in the liver. Ethionine is a typical compound inducing fatty liver. It inhibits RNA and protein syntheses and destructs polysome of the liver cell. Fatty liver is induced by the inhibition of protein synthesis and the disturbance of lipoprotein secretion.
Usually, fatty liver is closely related to the accumulation of triglyceride in the liver. In the present example, the degree of fatty liver and protective or therapeutic effect against the fatty liver was evaluted by measurement of triglyceride content in the liver.
The animals used in the test were 4 week-old male mice (dd-strain).
The mice were submitted for 5 days to a normal diet (control), to the normal diet plus 0.2% ethionine (positive control), to the normal diet plus 0.2% ethionine and 0.2% of the compound of this invention, or to the normal diet plus 0.2% ethionine and 0.2% methionine which was the referential diet. At the end of the period of 5 days, content of triglyceride in the liver was studied colorimetrically by chromotropic acid method and the result was represented as triolein content (mg/g-liver).

[4] = system: acute liver damage associated with discrete lobular necrosis (D-galactosamine); experiment: Protective effect on acute hepatitis with mesenchymal reaction and discrete lobular necrosis (D-galactosamine model); format: in vivo, male rat (SD strain); conditions: 100 mg/kg oral 6 h before D-galactosamine
Description: D-Galactosamine is a compound which induces a discrete lobular necrosis associated with mesenchymal reaction similar to the change observed in human viral hepatitis, so that it is frequently used in producing a model for viral hepatitis.
The compound of this invention or anethol trithion was administered orally to the male rat (SD strain) at the dose of 100 mg/kg. Six hours after it, D-galacetosamine was intraperitoneally administered at the dose of 600 mg/kg. Four hours after it, an additional 300 mg/kg was administered intraperitoneally. Eight hours after it, the animals were sacrificed to collect the blood samples. P-GPT activity and triglyceride in the liver were measured to evaluate the effect of the compound of this invention.

[5] = 250 mg/kg oral everyday for 10 days
[6] = 50 mg/kg oral everyday for 10 days

SMILES | p-GPT (plasma glutamic-pyruvic transaminase activity) [2] [Karmen units] | Liver Damage Index [2] | Degree of fatty liver (histopathological examination) ([3]; 250 mg/kg oral) | Triglyceride (content in the liver, as triolein) (fatty liver (ethionine)) [mg/g] | Total lipid [3, 5] [mg/g-liver] | Triglyceride [3, 5] [mg/g-liver] | further results
CC(C)OC(=O)C(C(=O)OC(C)C)=C1SCC[S+]1[O-] (stereo not shown) [Compound 31, 2-(Diisopropoxycarbonyl)methyliden-1,3-dithiolan-1-oxide] | 121 | 0.8 | – | – | – | – | LD50 (in vivo): > 6000 mg/kg; Concentration of Ethyl alcohol in Plasma ([1]; 0 min): 12±8 ppm; Concentration of Ethyl alcohol in Plasma ([1]; 5 min): 720±145 ppm; Concentration of Ethyl alcohol in Plasma ([1]; 15 min): 583±122 ppm; Concentration of Ethyl alcohol in Plasma ([1]; 30 min): 343±13 ppm; Concentration of Ethyl alcohol in Plasma ([1]; 60 min): 5±2 ppm
CC(C)COC(=O)C(C(=O)OCC(C)C)=C1SCCS1 [Compound 6] | 26 | 0.5 | ± - - - ± ± | – | – | – | Degree of fatty liver (histopathological examination) ([3]; 50 mg/kg oral): ± ± and ± ± + ±
CC(C)SC(=O)C(C(=O)SC(C)C)=C1SCCS1 [Compound 13] | 105 | 1.4 | - ± and - ± ± ± | – | – | – | Degree of fatty liver (histopathological examination) ([3]; 50 mg/kg oral): ± ± and ± ± ± + ±
CCOC(=O)C(C(=O)OC(C)CC)=C1SCCS1 (stereo not shown) [Compound 22] | 67 | 0.4 | – | 11.3 ± 0.96 | – | – | –
CCOC(=O)C(C(=O)OCC)=C1SCC[S+]1[O-] (stereo not shown) [Compound 30] | 156 | 0.8 | – | 12.6 ± 2.3 | – | – | –
CSCC[C@H](N)C(=O)O [Methionine, methionine, reference compound] | – | – | + ± and ++ ++ ++ ± | 13.2 ± 2.1 | 168.6 ± 21.6 | 58.2 ± 9.6 | therapeutic effect on fatty liver ([3]; carbon tetrachloride, in words): hardly exhibited a therapeutic effect
CCOC(=O)C(C(=O)OC(C)C)=C1SCCS1 [Compound 21, Ethyl isopropyl 1,3-dithiolan-2-ylidene malonate] | 64 | 0.6 | – | – | 70.2 ± 8.3 | 24.8 ± 3.2 | Total lipid [3, 6]: 97.8 ± 10.3 mg/g-liver; Triglyceride [3, 6]: 40.6 ± 6.8 mg/g-liver; LD50 (in vivo): 2230 mg/kg; Triglyceride in liver [4]: 6.8 ± 1.2 mg/g; p-GPT [4]: 47±21 Karmen unit
CCOC(=O)C(C(=O)SCC)=C1SCCS1 [Compound 26] | 62 | 0.6 | – | – | – | – | Concentration of Ethyl alcohol in Plasma ([1]; 0 min): 10±3 ppm; Concentration of Ethyl alcohol in Plasma ([1]; 5 min): 690±102 ppm; Concentration of Ethyl alcohol in Plasma ([1]; 15 min): 694±86 ppm; Concentration of Ethyl alcohol in Plasma ([1]; 30 min): 432±96 ppm; Concentration of Ethyl alcohol in Plasma ([1]; 60 min): 12±8 ppm
CC(C)COC(=O)C(C(=O)OCC(C)C)=C1SCC[S+]1[O-] (stereo not shown) [Compound 32] | 180 | 1.0 | – | – | 77.2 ± 8.7 | 26.3 ± 4.2 | Total lipid [3, 6]: 112.4 ± 12.3 mg/g-liver; Triglyceride [3, 6]: 48.3 ± 7.6 mg/g-liver
